This is an account of results in patent publication US12396956B2, “Modified release compositions of a gamma-hydroxybutyric acid derivative” (XWPHARMA LTD., priority 2020, dated 2025).

A short description of this data set: Oral bioavailability of γ-hydroxybutyric acid from the prodrug. To be noted: in a patient, oral administration.

With `CC(C)[C@H](N)C(=O)OCCCC(=O)O` [compound (1), 4-((L-Valyl)oxy)butanoic acid], the “oral bioavailability of γ-hydroxybutyric acid” value was “greater than 60 % F”.
